Data from ChEMBL document CHEMBL5614419, “Discovery of novel BCL6-Targeting PROTACs with effective antitumor activities against DLBCL in vitro and in vivo” (Eur J Med Chem, 2024).
Active and inactive are the calls of the source. The calls are words filed in the database; no cut-off is given here.

How the values were obtained:
[1] = molecular target: T1, Protein cereblon/B-cell lymphoma 6 protein (Homo sapiens, UniProt Q96SW2+P41182); assay: PROTAC activity at CRBN/BCL6 in BCL6-dependent human SU-DHL-4 cells assessed as induction of BCL6 degradation by measuring degradation rate at 1 uM incubated for 48 hrs by Western blot analysis relative to control; format: cell-based
T1 sequence (Q96SW2 whole entry, looked up, other chains not shown): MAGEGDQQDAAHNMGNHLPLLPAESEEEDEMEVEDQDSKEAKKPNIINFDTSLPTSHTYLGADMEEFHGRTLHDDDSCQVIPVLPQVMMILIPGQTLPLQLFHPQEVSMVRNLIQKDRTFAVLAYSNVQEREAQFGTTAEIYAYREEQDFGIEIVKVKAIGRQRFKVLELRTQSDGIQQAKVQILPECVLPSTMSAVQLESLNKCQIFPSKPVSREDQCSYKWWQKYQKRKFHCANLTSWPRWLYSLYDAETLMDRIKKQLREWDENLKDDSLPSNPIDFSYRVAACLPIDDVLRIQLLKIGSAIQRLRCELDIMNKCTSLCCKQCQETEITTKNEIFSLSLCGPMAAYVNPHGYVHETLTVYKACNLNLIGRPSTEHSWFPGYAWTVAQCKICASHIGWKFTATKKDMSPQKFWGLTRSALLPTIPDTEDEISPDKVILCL

[2] = molecular target: T1, Protein cereblon/B-cell lymphoma 6 protein; assay: PROTAC activity at CRBN/BCL6 in BCL6-dependent human SU-DHL-4 cells assessed as induction of BCL6 degradation by measuring degradation rate at 10 uM incubated for 48 hrs by Western blot analysis relative to control; format: cell-based
SUD4 [3] = assay: Antiproliferative activity against BCL6-dependent human SU-DHL-4 cells assessed as inhibition of cell growth at 10 uM measured after 6 days by MTT assay relative to control; format: functional; settings: SU-DHL-4, 144 h, time 6 day
SUD4 [4] = assay: Antiproliferative activity against BCL6-dependent human SU-DHL-4 cells assessed as inhibition of cell growth at 1 uM measured after 6 days by MTT assay relative to control; format: functional; settings: SU-DHL-4, 144 h, time 6 day
[5] = molecular target: B-cell lymphoma 6 protein (Homo sapiens, UniProt P41182); assay: Binding affinity to fluorescent labeled recombinant BCL-6 BTB domain (unknown origin) assessed as dissociation constant incubated for 10 mins by MST analysis
SUD4 [6] = assay: Upregulation of p27 protein level in human SU-DHL-4 cells at 5 uM preincubated for 48 hrs followed by compound elution and measured after 72 hrs by Western blot analysis; format: functional, cell-based
SUD4 [7] = assay: Upregulation of p21 protein level in human SU-DHL-4 cells at 5 uM preincubated for 48 hrs followed by compound elution and measured after 72 hrs by Western blot analysis; format: functional, cell-based
DOHH-2 = assay: Antiproliferative activity against BCL6-dependent human DOHH-2 cells assessed as inhibition in cell growth measured after 6 days by MTS assay; settings: DOHH-2, 144 h
SU-DHL-6 = assay: Antiproliferative activity against BCL6-dependent human SU-DHL-6 cells assessed as inhibition in cell growth measured after 6 days by MTT assay; settings: SU-DHL-6, 144 h
[8] = Cytotoxicity against human WI-38 VA13 cells assessed as inhibition in cell growth measured after 6 days by MTT assay; format: toxicity, cell-based; settings: WI-38 VA13 cells
SUD4 [9] = assay: Antiproliferative activity against BCL6-dependent human SU-DHL-4 cells assessed as inhibition in cell growth measured after 6 days by MTT assay; settings: SU-DHL-4, 144 h
[10] = molecular target: T1, Protein cereblon/B-cell lymphoma 6 protein; assay: PROTAC activity at CRBN/BCL6 in human DOHH-2 cells assessed as induction of BCL6 degradation incubated for 48 hrs by Western blot analysis; format: cell-based
[11] = molecular target: T1, Protein cereblon/B-cell lymphoma 6 protein; assay: PROTAC activity at CRBN/BCL6 in human SU-DHL-4 cells assessed as induction of BCL6 degradation incubated for 48 hrs by Western blot analysis; format: cell-based
OCI-Ly1 = assay: Antiproliferative activity against BCL6-dependent human OCI-Ly1 cells assessed as inhibition in cell growth measured after 6 days by MTT assay; settings: OCI-Ly1, 144 h
[12] = molecular target: T1, Protein cereblon/B-cell lymphoma 6 protein; assay: PROTAC activity at CRBN/BCL6 in human DOHH-2 cells assessed as induction of BCL6 degradation by measuring maximal efficacy incubated for 48 hrs by Western blot analysis relative to control; format: cell-based
[13] = molecular target: T1, Protein cereblon/B-cell lymphoma 6 protein; assay: PROTAC activity at CRBN/BCL6 in human SU-DHL-4 cells assessed as induction of BCL6 degradation by measuring maximal efficacy incubated for 48 hrs by Western blot analysis relative to control; format: cell-based
[14] = Cytotoxicity against HEK293T cells assessed as inhibition in cell growth measured after 6 days by MTT assay; format: toxicity, cell-based, HEK-293T; settings: human, HEK293T cells

| Activity [1] [%] | Activity [2] [%] | SMILES | also measured |
| --- | --- | --- | --- |
| 22.7 | 1.4 | COc1cc(Nc2nc(N3CCN(C(=O)CCCCCCNc4cccc5c4C(=O)N(C4CCC(=O)NC4=O)C5=O)CC3)ncc2F)ccc1NC(=O)c1ccc(C2=CCCC2)s1 (configuration not stated) | – |
| 5.2 | 21.6 | COc1cc(Nc2nc(N3CCN(CCOCCNc4ccc5c(c4)C(=O)C(C4CCC(=O)NC4=O)C5=O)CC3)ncc2F)ccc1NC(=O)c1ccc(C2=CCCC2)s1 (configuration not stated) | – |
| 28.2 | 48.1 | COc1cc(Nc2nc(N3CCN(C(=O)CCOCCOCCNc4cccc5c4C(=O)N(C4CCC(=O)NC4=O)C5=O)CC3)ncc2F)ccc1NC(=O)c1ccc(C2=CCCC2)s1 (configuration not stated) | – |
| 0.1 | 31.7 | COc1cc(Nc2nc(N3CCN(C(=O)CCCCNc4cccc5c4C(=O)N(C4CCC(=O)NC4=O)C5=O)CC3)ncc2F)ccc1NC(=O)c1ccc(C2=CCCC2)s1 (configuration not stated) | – |
| 55.7 | 46.3 | COc1cc(Nc2nc(N3CCN(C(=O)CCOCCNc4cccc5c4C(=O)N(C4CCC(=O)NC4=O)C5=O)CC3)ncc2F)ccc1NC(=O)c1ccc(C2=CCCC2)s1 (configuration not stated) | inhibition at 10 µM (SUD4 [3]): 72.9%; inhibition at 1 µM (SUD4 [4]): 47% |
| 7.1 | 2.7 | COc1cc(Nc2nc(N3CCN(C(=O)CC4CCN(c5cccc6c5C(=O)N(C5CCC(=O)NC5=O)C6=O)CC4)CC3)ncc2F)ccc1NC(=O)c1ccc(C2=CCCC2)s1 (configuration not stated) | – |
| – | – | CC[C@H](C)[C@H](NC(=O)[C@H](CO)NC(=O)[C@H](CCCNC(=N)N)NC(=O)CNC(=O)[C@H](C)NC(=O)[C@H](CCC(=O)O)NC(=O)[C@H](CCCCN)NC(=O)[C@@H](NC(=O)[C@@H](NC(=O)[C@H](C)NC(=O)[C@@H](NC(=O)[C@@H](N)CC(C)C)C(C)C)[C@@H](C)O)C(C)C)C(=O)N[C@@H](Cc1cnc[nH]1)C(=O)N[C@@H](CCC(=O)O)C(=O)N[C@H](C(=O)N1CCC[C@H]1C(=O)N[C@@H](CCCNC(=N)N)C(=O)O)[C@@H](C)CC | Kd [5]: 30 µM |
| 58.4 | 64 | COc1cc(Nc2nc(N3CCN(CCCCCNc4cccc5c4C(=O)N(C4CCC(=O)NC4=O)C5=O)CC3)ncc2F)ccc1NC(=O)c1ccc(C2=CCCC2)s1 (configuration not stated) | inhibition at 10 µM (SUD4 [3]): 70.1%; inhibition at 1 µM (SUD4 [4]): 58.7% |
| 42.9 | 55.8 | COc1cc(Nc2nc(N3CCN(CCCCCCNc4cccc5c4C(=O)N(C4CCC(=O)NC4=O)C5=O)CC3)ncc2F)ccc1NC(=O)c1ccc(C2=CCCC2)s1 (configuration not stated) | – |
| 38 | 54.1 | COc1cc(Nc2nc(N3CCN(C(=O)CCCCCNc4cccc5c4C(=O)N(C4CCC(=O)NC4=O)C5=O)CC3)ncc2F)ccc1NC(=O)c1ccc(C2=CCCC2)s1 (configuration not stated) | inhibition at 10 µM (SUD4 [3]): 41.3%; inhibition at 1 µM (SUD4 [4]): 31% |
| 11.1 | 37 | COc1cc(Nc2nc(N3CCN(C(=O)CCOCCNc4cccc5c4CC(C4CCC(=O)NC4=O)C5=O)CC3)ncc2F)ccc1NC(=O)c1ccc(C2=CCCC2)s1 (configuration not stated) | – |
| 35.6 | 38.3 | COc1cc(Nc2nc(N3CCN(CCOCCOCCNc4cccc5c4C(=O)N(C4CCC(=O)NC4=O)C5=O)CC3)ncc2F)ccc1NC(=O)c1ccc(C2=CCCC2)s1 (configuration not stated) | – |
| 34.7 | 41.2 | COc1cc(Nc2nc(N3CCN(C(=O)CCOCCOCCOCCNc4cccc5c4C(=O)N(C4CCC(=O)NC4=O)C5=O)CC3)ncc2F)ccc1NC(=O)c1ccc(C2=CCCC2)s1 (configuration not stated) | – |
| 15.7 | 37.1 | COc1cc(Nc2nc(N3CCN(CCOCCNc4cccc5c4CC(C4CCC(=O)NC4=O)C5=O)CC3)ncc2F)ccc1NC(=O)c1ccc(C2=CCCC2)s1 (configuration not stated) | – |
| – | – | COc1cc(Nc2nc(N3C[C@@H](C)N[C@@H](C)C3)ncc2F)ccc1NC(=O)c1ccc(C2=CCCC2)s1 | Activity (SUD4 [6]): inactive; Activity (SUD4 [7]): inactive |
| 12.2 | – | COc1cc(Nc2nc(N3CCN(C(=O)CCOCCOCCOCCOCCNc4cccc5c4C(=O)N(C4CCC(=O)NC4=O)C5=O)CC3)ncc2F)ccc1NC(=O)c1ccc(C2=CCCC2)s1 (configuration not stated) | – |
| 23.1 | 24.1 | COc1cc(Nc2nc(N3CCN(C(=O)CCC4CCN(c5cccc6c5C(=O)N(C5CCC(=O)NC5=O)C6=O)CC4)CC3)ncc2F)ccc1NC(=O)c1ccc(C2=CCCC2)s1 (configuration not stated) | – |
| 40.6 | 36.3 | COc1cc(Nc2nc(N3CCN(CCCCNc4cccc5c4C(=O)N(C4CCC(=O)NC4=O)C5=O)CC3)ncc2F)ccc1NC(=O)c1ccc(C2=CCCC2)s1 (configuration not stated) | – |
| 0 | 0 | COc1cc(Nc2nc(N3CCN(C(=O)CCOCCNc4cc5c(cc4F)C(=O)C(C4CCC(=O)NC4=O)C5=O)CC3)ncc2F)ccc1NC(=O)c1ccc(C2=CCCC2)s1 (configuration not stated) | – |
| 11.9 | 20.7 | COc1cc(Nc2nc(N3CCN(CCOCCNc4cccc5c4C(=O)N(C4CCC(=O)N(C)C4=O)C5=O)CC3)ncc2F)ccc1NC(=O)c1ccc(C2=CCCC2)s1 (configuration not stated) | IC50 (DOHH-2): > 10 µM; IC50 (SU-DHL-6): > 10 µM; IC50 at 6 days [8]: > 10 µM; IC50 (SUD4 [9]): > 10 µM; DC50 [10]: > 10 µM; DC50 [11]: > 10 µM; IC50 (OCI-Ly1): > 10 µM; Emax [12]: 11.6%; Emax [13]: 29.4%; IC50 at 6 days [14]: > 10 µM |
| 36.6 | 34 | COc1cc(Nc2nc(N3CCN(C(=O)CCOCCNc4ccc5c(c4)C(=O)C(C4CCC(=O)NC4=O)C5=O)CC3)ncc2F)ccc1NC(=O)c1ccc(C2=CCCC2)s1 (configuration not stated) | – |
| 13.5 | 26.3 | COc1cc(Nc2nc(N3CCN(CCOCCOc4cccc5c4C(=O)C(C4CCC(=O)NC4=O)C5=O)CC3)ncc2F)ccc1NC(=O)c1ccc(C2=CCCC2)s1 (configuration not stated) | – |
| 27.4 | 73.2 | COc1cc(Nc2nc(N3CCN(C(=O)CCOCC#Cc4cccc5c4CN(C4CCC(=O)NC4=O)C5=O)CC3)ncc2F)ccc1NC(=O)c1ccc(C2=CCCC2)s1 (configuration not stated) | inhibition at 10 µM (SUD4 [3]): 98%; inhibition at 1 µM (SUD4 [4]): 5.7% |
